# Results reported in article PMC6450673, “Targeted degradation of aberrant tau in frontotemporal dementia patient-derived neuronal cell models” (eLife, 2019).
# Several values for one entry are separate records, joined by “and”; a condition that tells them apart may be missing. Equal values may be shown once.
# Assays:
# [1] = test system: total tau (TAU5) in P301L neurons; assay: Western blot of total tau in P301L neurons; type: cell-based, human
# Source text: (§1) Cells from individuals carrying the tau risk variant A152T (c.1407G > A; NCBI RefSeq NM_001123066, rs143624519), the autosomal dominant mutation P301L (c.C1907T; NCBI NM_001123066, rs63751273), or age-matched non-mutant WT tau were employed in this study (Figure 2—source data 1). Dermal fibroblasts from the tau-P301L carrier and the healthy individual were generated from a skin biopsy from subjects within the MGH Frontotemporal Disorders Unit as part of the MGH Neurodegeneration Repository. Approval for human subjects’ work was obtained under a Partners/MGH-approved IRB Protocol (#2010P001611/MGH). Fibroblasts were reprogrammed into iPSCs, which were subsequently converted into cortical-enriched neural progenitor cells (NPCs) and differentiated into neuronal cells as previously described ([Almeida et al., 2012]; [Seo et al., 2017]; [Silva et al., 2016]; [Sheridan et al., 2011]) (Silva MC, Manuscript in preparation, 2019). Briefly, cells were cultured in 6-well (Fisher Scientific Corning, Pittsburgh, PA) or 96-well (Fisher Scientific Corning) plates coated with poly-ornithine (20 μg/mL in water, Sigma, St. Louis, MO) and laminin (5 μg/mL in PBS, Sigma) (POL-coated), in DMEM/F12-B27 media [70% DMEM (Gibco, Carlsbad, CA), 30% Ham’s-F12 (Fisher Scientific Corning), 2% B27 (Gibco), 1% penicillin-streptomycin (Gibco)]. Media was supplemented with EGF (20 ng/mL, Sigma), FGF (20 ng/mL, Stemgent, Cambridge, MA) and heparin (5 μg/mL, Sigma), to promote NPC proliferation and expansion. The growth factors were withdrawn to promote neural differentiation for 6 to 8 weeks, with half media change two times per week. Cell lines’ identity was authenticated by SANGER sequencing, karyotyping and ACGH analysis at different stages of culture maintenance from iPSC to NPC. All working cell lines tested negative for mycoplasma contamination.
# Compound treatment in six-well plates was performed in 2 mL media volume by removing 1 mL of conditioned media from the culture and adding 1 mL of new media pre-mixed with the compound at the appropriate 2X concentration, followed by incubation at 37°C for the designated period of time. […]
# Neurons differentiated in six-well plates for 6 weeks were washed and collected in PBS, lysed in RIPA buffer (Boston Bio-Products, Boston, MA) supplemented with 2% SDS (Sigma), protease inhibitors cocktail (Roche Complete Mini tablets, Mannheim, Germany), and phosphatase inhibitors cocktail (Sigma), followed by water sonication (Bransonic Ultrasonic Baths, Thomas Scientific, Danbury, CT) and 20,000 g centrifugation for 20 min. Supernatants were transferred to new tubes and total protein concentration was quantified with the Pierce BCA Protein Assay Kit (ThermoFisher Scientific, Carlsbad, CA). […]
# [2] = target: T1, total tau (TAU5) in non-mutant control iPSC-derived neurons (Homo sapiens, UniProt P10636); assay: Human total tau ELISA in control neurons 1-3; type: cell-based; conditions: for TAU5 (total tau by ELISA, relative to vehicle-treated): replicate values
# T1 construct: modeling pathogenic tau species without the need for overexpression of heterologous genes; endogenous in cells; host or cells: 8330-8-RC1, MGH2069-RC1, CTR2-L17-RC2 human iPSC-derived neurons
# Source text: as §1
# (§2) Compound treatment in six-well plates was performed in 2 mL media volume by removing 1 mL of conditioned media from the culture and adding 1 mL of new media pre-mixed with the compound at the appropriate 2X concentration, followed by incubation at 37°C for the designated period of time. Compound treatment in 96-well plates was performed in 100 μL media volume by adding compound directly to each well, followed by incubation at 37°C. When testing the effect of drug pre-treatment, the first compound was added as described above for the period of time needed, and then QC-01–175 was added directly onto the media without media exchange.
# Neuronal cells differentiated in six-well plate format for 6 weeks, were collected as described for western blotting, and lysed in ELISA-compatible buffer (Invitrogen FNN0011), supplemented with 1 mM PMSF, protease (Roche) and phosphatase (Sigma) inhibitors cocktails, for 30 min on ice with quick vortexing. Lysates were clarified by centrifugation at 13,000 rpm at 4°C for 10 min. The clear lysates were then transferred to new microfuge tubes and total protein concentration was quantified with the Pierce BCA Protein Assay Kit (ThermoFisher Scientific). ELISA assays were performed according to manufacturer instructions: Human Total Tau ELISA (Invitrogen Kit KHB0041/KHB0042) and P-Tau[pS396] Human ELISA Kit (Invitrogen Kit KHB7031). Data was plotted using GraphPad Prism version 8.0.
# [3] = test system: total tau (TAU5) in A152T neurons; assay: Western blot of total tau in A152T neurons; type: cell-based, human; conditions: 24 hr
# Source text: as §1, §2
# (§3) Neurons differentiated in six-well plates for 6 weeks were washed and collected in PBS, lysed in RIPA buffer (Boston Bio-Products, Boston, MA) supplemented with 2% SDS (Sigma), protease inhibitors cocktail (Roche Complete Mini tablets, Mannheim, Germany), and phosphatase inhibitors cocktail (Sigma), followed by water sonication (Bransonic Ultrasonic Baths, Thomas Scientific, Danbury, CT) and 20,000 g centrifugation for 20 min. Supernatants were transferred to new tubes and total protein concentration was quantified with the Pierce BCA Protein Assay Kit (ThermoFisher Scientific, Carlsbad, CA). Human recombinant tau protein ladder was purchased from Sigma. Electrophoresis were performed with the Novex NuPAGE SDS-PAGE Gel System (Invitrogen, Carlsbad, CA), by running 10 μg of total protein (pre-boiled in SDS-DTT loading buffer, NEB, Ipswich, MA) on pre-cast SDS-PAGE. Gels were transferred onto PVDF membranes (EMD Millipore) using standard procedures. Membranes were blocked in 5% BSA (Sigma) in Tris-buffered saline with Tween-20 (TBST/Biorad, Hercules, CA) for 2 hr, incubated overnight with primary antibody (see antibody section) at 4°C, followed by corresponding HRP-linked secondary antibody incubation (Cell Signaling Technology, Danvers, MA). […]
# [4] = test system: P-tau S396 in P301L neurons; assay: Western blot of P-tau S396 in P301L neurons; type: cell-based, human
# Source text: as §1, §2, §3
# [5] = QC-01-175 0.001 μM, 8 h treatment
# T1 sequence (P10636 1-441 isoform P10636-8, stated change not applied): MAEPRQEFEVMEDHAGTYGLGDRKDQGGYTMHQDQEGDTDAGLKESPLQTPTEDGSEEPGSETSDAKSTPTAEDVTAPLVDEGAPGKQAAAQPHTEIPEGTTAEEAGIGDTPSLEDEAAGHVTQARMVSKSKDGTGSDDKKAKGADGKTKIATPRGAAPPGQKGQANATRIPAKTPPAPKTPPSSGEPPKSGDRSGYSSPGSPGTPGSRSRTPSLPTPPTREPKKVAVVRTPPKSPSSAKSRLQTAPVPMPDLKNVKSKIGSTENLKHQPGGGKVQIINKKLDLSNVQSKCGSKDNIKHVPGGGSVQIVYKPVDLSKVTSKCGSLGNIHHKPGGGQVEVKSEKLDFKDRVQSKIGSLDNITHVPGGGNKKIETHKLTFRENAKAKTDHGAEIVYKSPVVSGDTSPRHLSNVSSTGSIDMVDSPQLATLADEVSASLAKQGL
smiles,measurement,setting,value
O=C(CCc1ccc2c(c1)[nH]c1ccncc12)NCCOCCOCCNc1cccc2c1C(=O)N(C1CCC(=O)NC1=O)C2=O (stereo not shown) [QC-01–175],TAU5 (relative to vehicle),[1]; [5],0.95 and 0.90 and 0.56 and 0.94 and 0.68 and 0.86
same,TAU5 (relative to vehicle),"[1]; QC-01-175 1 μM, 4 h treatment",1.07 and 1.10 and 0.76 and 0.60 and 0.72 and 0.88
same,reduction in total tau,"[1]; western blot, 1 μM, 24 hr",70%
same,"TAU5 (total tau by ELISA, relative to vehicle-treated)","[2]; Control 1, 8330-8-RC1, 24h, 0.001 μM",1.03 and 0.98 and 1.20 and 1.01
same,"TAU5 (total tau by ELISA, relative to vehicle-treated)","[2]; Control 1, 8330-8-RC1, 24h, 0.01 μM",0.91 and 0.87 and 0.97 and 1.00
same,"TAU5 (total tau by ELISA, relative to vehicle-treated)","[2]; Control 1, 8330-8-RC1, 24h, 0.1 μM",0.93 and 1.07 and 0.97 and 0.84
same,"TAU5 (total tau by ELISA, relative to vehicle-treated)","[2]; Control 1, 8330-8-RC1, 24h, 1 μM",0.99 and 0.94 and 0.95 and 0.71
same,"TAU5 (total tau by ELISA, relative to vehicle-treated)","[2]; Control 1, 8330-8-RC1, 24h, 10 μM",0.74 and 1.00 and 0.91 and 0.86
same,"TAU5 (total tau by ELISA, relative to vehicle-treated)","[2]; Control 2, MGH2069-RC1, 24h, 0.001 μM",0.91 and 0.93 and 1.00 and 1.15
same,"TAU5 (total tau by ELISA, relative to vehicle-treated)","[2]; Control 2, MGH2069-RC1, 24h, 0.01 μM",0.82 and 0.85 and 0.89 and 0.99
same,"TAU5 (total tau by ELISA, relative to vehicle-treated)","[2]; Control 2, MGH2069-RC1, 24h, 0.1 μM",0.76 and 0.78 and 0.92 and 0.71
same,"TAU5 (total tau by ELISA, relative to vehicle-treated)","[2]; Control 2, MGH2069-RC1, 24h, 1 μM",0.87 and 0.89 and 0.98 and 0.78
same,"TAU5 (total tau by ELISA, relative to vehicle-treated)","[2]; Control 2, MGH2069-RC1, 24h, 10 μM",0.71 and 0.83 and 0.74 and 0.76
same,"TAU5 (total tau by ELISA, relative to vehicle-treated)","[2]; Control 3, CTR2-L17-RC2, 24h, 0.001 μM",1.10 and 1.07 and 0.99 and 1.31
same,"TAU5 (total tau by ELISA, relative to vehicle-treated)","[2]; Control 3, CTR2-L17-RC2, 24h, 0.01 μM",0.96 and 1.12 and 1.00 and 0.90
same,"TAU5 (total tau by ELISA, relative to vehicle-treated)","[2]; Control 3, CTR2-L17-RC2, 24h, 0.1 μM",1.08 and 0.96 and 0.93 and 1.00
same,"TAU5 (total tau by ELISA, relative to vehicle-treated)","[2]; Control 3, CTR2-L17-RC2, 24h, 1 μM",0.91 and 0.81 and 0.71 and 0.95
same,"TAU5 (total tau by ELISA, relative to vehicle-treated)","[2]; Control 3, CTR2-L17-RC2, 24h, 10 μM",0.93 and 0.83 and 1.17 and 0.95
same,degradation of tau,"[2]; all three control neurons, ELISA, 24 hr, concentrations up to 1 μM",No significant degradation
same,degradation of total tau,"[2]; control line 1, 10 μM, 24 hr",~ 20%
same,degradation of total tau,"[2]; control line 2, 10 μM, 24 hr",~ 20%
same,degradation of total tau,"[2]; control line 3, 10 μM, 24 hr",no effect
same,"dose dependence of effect on tau, ELISA","[2]; control neurons (8330–8-RC1, MGH2069-RC1, CTR2-L17-RC2), 24 hr",did not show a dose-dependent effect
same,"concentration at which maximal total tau clearance (Dmax, 24h) was achieved",[3],10 µM
same,"Dmax, 24h for total tau",[3]; averaged across independent replicates (Figure 2—figure supplement 1),75%
same,S396 P-Tau (relative to vehicle),"[4]; QC-01-175 0.001 μM, 4 h treatment",0.59 and 0.49 and 0.60 and 0.58 and 0.57 and 0.52
same,S396 P-Tau (relative to vehicle),[4]; [5],0.98 and 0.81 and 1.10 and 0.96 and 0.94 and 0.86
same,S396 P-Tau (relative to vehicle),"[4]; QC-01-175 0.01 μM, 4 h treatment",0.62 and 0.51 and 0.75 and 0.61 and 0.59 and 0.54
